{"source": "patent US20080234361A1", "about": "“Pharmaceutical Compositions, Methods of Formulation Thereof and Methods of Use Thereof” (Rimonest Ltd., priority 2004, published 2008)", "tested_on": "human PC-3 prostate cancer cells", "test": "in vitro assay of PC-3 cell invasion across Matrigel artificial membrane", "assay_type": "cell-based", "settings": "for X ± σ (X = mean number of invading cells, σ = standard deviation): PC-3 cells, HGF 40 ng/ml induced invasion, fixed total concentration 4 micrograms/ml, 72 hr culture, c+ 33 ± 10.7, c− 3 ± 1.7; for inhibition of PC-3 invasion, result in words: total dose 4 micrograms/ml, Kruskal-Wallis test", "source_text": "In order to determine a possible molecular mechanism of mixtures of conjugated fatty acids and polyphenols according to the present invention, an accepted in vitro assay of cancer cell invasion was employed (Jiang et al., (1995) Regulation of the expression of E-cadherin on human cancer cells by gamma-linolenic acid (GLA). Cancer Res. 55:5043-5048).\nSpecifically, human PC-3 prostate cancer cells were used as an in vitro model to assess invasion across a Matrigel™ (Becton, Dickenson and Company, Franklin Lakes, N.J.) artificial membrane. Briefly, 6.5 mm diameter polycarbonate membranes (pore size 8 microns) […]. Following gel rehydration, 5×10^4 PC-3 human prostate cancer cells were added to each well. Hepatocyte growth factor/scatter factor (HGF) (Becton, Dickenson & Company, Franklin Lakes, N.J.) was used at 40 ng/ml to induce invasion. The upper chamber contained thested components (i.e. punicic acid, luteolin, caffeic acid or ellagic acid, or a combination of two, three or all four of the chemicals) at a fixed total concentration of 4 micrograms/ml.\nPure compounds (ellagic acid ([…], luteolin [L], caffeic acid [C] and punicic acid […]) were purchased commercially (E, C and L from Sigma Aldrich, Rehovot, Israel; P from Larodan Chemicals; Malmo; Sweden) and assayed as potential invasion inhibitors. The total dose was 4 micrograms/ml in each of 18 trials. The Kruskal-Wallis test was used to measure significance.", "note": "“Also recorded” adds a separate entry of the source.", "data": [{"smiles": "O=C(O)/C=C/c1ccc(O)c(O)c1", "note": "[C, caffeic acid]", "values": [{"measurement": "X ± σ (X = mean number of invading cells, σ = standard deviation)", "value": "16.8 ± 3.4"}, {"measurement": "inhibition of PC-3 invasion, result in words", "value": "inhibited invasion significantly; also recorded: much less than that of ellagic acid, punicic acid or luteolin"}]}, {"smiles": "O=c1oc2c(O)c(O)cc3c(=O)oc4c(O)c(O)cc1c4c23", "note": "[E, ellagic acid]", "values": [{"measurement": "X ± σ (X = mean number of invading cells, σ = standard deviation)", "value": "7.4 ± 2.3"}, {"measurement": "inhibition of PC-3 invasion, result in words", "value": "inhibited invasion significantly"}]}, {"smiles": "O=c1cc(-c2ccc(O)c(O)c2)oc2cc(O)cc(O)c12", "note": "[L, luteolin]", "values": [{"measurement": "X ± σ (X = mean number of invading cells, σ = standard deviation)", "value": "9 ± 1.6"}, {"measurement": "inhibition of PC-3 invasion, result in words", "value": "inhibited invasion significantly"}]}, {"smiles": "CCCC\\C=C/C=C/C=C\\CCCCCCCC(=O)O", "note": "[P, punicic acid]", "values": [{"measurement": "X ± σ (X = mean number of invading cells, σ = standard deviation)", "value": "6.4 ± 1.1"}, {"measurement": "inhibition of PC-3 invasion, result in words", "value": "inhibited invasion significantly"}]}]}
